Measurements published in ChEMBL document CHEMBL5465560, “Selectivity Literature for EUbOPEN Chemogenomic Library” (2024).
Each block holds one compound with its values, some of them ahead of it.

How the values were obtained:
[1] = molecular target: Casein kinase I isoform epsilon (Homo sapiens, UniProt P49674); assay: Selectivity interaction (ActivX KiNativ screen (kinase selectivity in THP-1 cell lysates)) EUB0000639a CSNK1E; assay type: subcellular; conditions: lysate
[2] = molecular target: Mitogen-activated protein kinase 7 (Homo sapiens) (UniProt Q13164); assay: Selectivity interaction (KinomeScan (DiscoverX)) EUB0000699a MAPK7; conditions: at 10 µM
Mitogen-activated protein kinase 7 (Homo sapiens), sequence (Q13164 2-816 limits assumed): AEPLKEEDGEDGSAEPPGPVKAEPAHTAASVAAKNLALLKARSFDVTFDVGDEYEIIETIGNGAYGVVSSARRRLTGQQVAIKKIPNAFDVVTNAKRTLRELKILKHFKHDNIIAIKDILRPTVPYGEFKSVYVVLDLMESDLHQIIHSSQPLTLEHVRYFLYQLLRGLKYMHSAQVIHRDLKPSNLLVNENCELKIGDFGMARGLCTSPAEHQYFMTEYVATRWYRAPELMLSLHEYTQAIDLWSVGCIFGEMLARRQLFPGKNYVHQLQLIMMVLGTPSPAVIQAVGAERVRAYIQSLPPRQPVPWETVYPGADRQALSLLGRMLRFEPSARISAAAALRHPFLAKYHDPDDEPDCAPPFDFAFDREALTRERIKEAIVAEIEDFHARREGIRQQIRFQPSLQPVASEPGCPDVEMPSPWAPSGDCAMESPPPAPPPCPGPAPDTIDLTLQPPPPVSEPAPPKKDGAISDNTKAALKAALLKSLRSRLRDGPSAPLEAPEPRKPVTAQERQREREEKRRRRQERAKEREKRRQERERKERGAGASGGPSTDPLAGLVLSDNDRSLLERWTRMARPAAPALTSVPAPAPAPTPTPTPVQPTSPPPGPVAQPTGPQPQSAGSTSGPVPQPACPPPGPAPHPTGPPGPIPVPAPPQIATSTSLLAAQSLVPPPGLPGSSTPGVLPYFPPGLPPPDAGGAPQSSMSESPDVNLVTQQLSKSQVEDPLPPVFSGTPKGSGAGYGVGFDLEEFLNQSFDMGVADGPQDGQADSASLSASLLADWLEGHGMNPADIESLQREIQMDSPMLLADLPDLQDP

[3] = molecular target: T1, Tyrosine-protein kinase receptor TYRO3 (Homo sapiens) (UniProt Q06418); assay: Selectivity interaction (ProQinase) EUB0000171b TYRO3
T1 sequence (whole entry): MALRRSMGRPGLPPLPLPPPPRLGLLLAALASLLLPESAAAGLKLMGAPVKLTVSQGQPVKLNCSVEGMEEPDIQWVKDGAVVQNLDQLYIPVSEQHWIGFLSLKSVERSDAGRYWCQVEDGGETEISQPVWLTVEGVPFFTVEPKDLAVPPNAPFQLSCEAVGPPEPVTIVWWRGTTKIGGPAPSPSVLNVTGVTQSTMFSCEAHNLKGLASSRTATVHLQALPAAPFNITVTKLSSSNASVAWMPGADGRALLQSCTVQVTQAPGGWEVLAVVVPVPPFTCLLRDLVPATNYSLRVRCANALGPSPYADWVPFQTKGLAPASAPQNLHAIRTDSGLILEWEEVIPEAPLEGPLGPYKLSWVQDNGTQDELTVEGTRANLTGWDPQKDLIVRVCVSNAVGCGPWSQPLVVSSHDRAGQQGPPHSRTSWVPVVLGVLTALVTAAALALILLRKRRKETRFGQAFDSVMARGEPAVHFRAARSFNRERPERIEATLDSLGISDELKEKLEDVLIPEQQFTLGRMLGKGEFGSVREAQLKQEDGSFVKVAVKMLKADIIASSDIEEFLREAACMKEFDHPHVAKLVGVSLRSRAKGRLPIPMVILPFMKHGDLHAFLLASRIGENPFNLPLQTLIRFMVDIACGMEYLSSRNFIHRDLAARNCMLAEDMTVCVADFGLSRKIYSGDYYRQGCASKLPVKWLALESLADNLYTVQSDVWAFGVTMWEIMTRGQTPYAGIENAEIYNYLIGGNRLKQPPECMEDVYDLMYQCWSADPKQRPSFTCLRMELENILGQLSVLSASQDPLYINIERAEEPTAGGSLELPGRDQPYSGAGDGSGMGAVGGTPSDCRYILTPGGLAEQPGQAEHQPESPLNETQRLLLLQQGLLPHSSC

[4] = molecular target: Platelet-derived growth factor receptor beta (Homo sapiens, UniProt P09619); assay: Selectivity interaction (Upstate Kinase Profiler service (Millipore)) EUB0000056c PDGFRB; conditions: at 1 µM
[5] = molecular target: Vascular endothelial growth factor receptor 3 (Homo sapiens, UniProt P35916); assay: Selectivity interaction (KinomeScan (DiscoverX)) EUB0001619a FLT4; conditions: at 1 µM
Vascular endothelial growth factor receptor 3, sequence (P35916 whole entry): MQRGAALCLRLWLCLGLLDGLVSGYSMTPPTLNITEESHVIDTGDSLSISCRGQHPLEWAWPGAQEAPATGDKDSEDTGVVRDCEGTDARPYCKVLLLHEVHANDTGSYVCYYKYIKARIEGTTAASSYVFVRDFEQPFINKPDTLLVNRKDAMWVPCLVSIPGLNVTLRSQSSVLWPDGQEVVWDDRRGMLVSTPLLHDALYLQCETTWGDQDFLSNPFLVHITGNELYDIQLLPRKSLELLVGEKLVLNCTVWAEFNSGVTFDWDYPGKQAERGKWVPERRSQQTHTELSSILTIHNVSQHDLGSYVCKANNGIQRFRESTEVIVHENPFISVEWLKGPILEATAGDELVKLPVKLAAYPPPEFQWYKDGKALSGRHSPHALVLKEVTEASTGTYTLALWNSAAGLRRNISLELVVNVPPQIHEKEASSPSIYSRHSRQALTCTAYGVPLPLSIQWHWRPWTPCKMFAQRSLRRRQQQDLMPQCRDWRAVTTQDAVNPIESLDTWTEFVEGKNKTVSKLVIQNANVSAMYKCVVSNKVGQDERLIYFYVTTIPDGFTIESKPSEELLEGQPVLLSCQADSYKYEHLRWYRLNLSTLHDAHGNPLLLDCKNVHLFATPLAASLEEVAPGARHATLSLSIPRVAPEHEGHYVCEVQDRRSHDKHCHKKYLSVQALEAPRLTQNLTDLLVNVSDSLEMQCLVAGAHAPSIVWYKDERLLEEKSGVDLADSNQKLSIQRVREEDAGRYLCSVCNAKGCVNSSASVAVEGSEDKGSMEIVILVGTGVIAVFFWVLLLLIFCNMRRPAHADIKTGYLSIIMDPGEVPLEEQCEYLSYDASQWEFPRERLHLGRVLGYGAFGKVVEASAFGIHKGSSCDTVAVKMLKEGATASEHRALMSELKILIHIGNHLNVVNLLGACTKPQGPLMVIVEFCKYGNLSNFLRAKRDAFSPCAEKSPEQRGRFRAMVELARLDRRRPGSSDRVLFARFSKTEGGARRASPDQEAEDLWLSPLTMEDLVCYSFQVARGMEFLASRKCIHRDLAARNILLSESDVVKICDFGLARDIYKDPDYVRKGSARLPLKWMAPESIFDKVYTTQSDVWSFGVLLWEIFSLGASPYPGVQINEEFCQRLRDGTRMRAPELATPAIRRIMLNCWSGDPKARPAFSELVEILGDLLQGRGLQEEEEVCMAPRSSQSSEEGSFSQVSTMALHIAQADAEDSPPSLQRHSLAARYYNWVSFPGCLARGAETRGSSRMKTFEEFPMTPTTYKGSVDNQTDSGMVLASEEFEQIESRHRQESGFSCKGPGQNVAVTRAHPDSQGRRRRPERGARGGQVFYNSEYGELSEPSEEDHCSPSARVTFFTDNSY

[6] = molecular target: T2, Dual specificity tyrosine-phosphorylation-regulated kinase 2 (Homo sapiens) (UniProt Q92630); assay: Selectivity interaction (Kinase panel (DSF assay)) EUB0001559a DYRK2
T2 sequence (whole entry): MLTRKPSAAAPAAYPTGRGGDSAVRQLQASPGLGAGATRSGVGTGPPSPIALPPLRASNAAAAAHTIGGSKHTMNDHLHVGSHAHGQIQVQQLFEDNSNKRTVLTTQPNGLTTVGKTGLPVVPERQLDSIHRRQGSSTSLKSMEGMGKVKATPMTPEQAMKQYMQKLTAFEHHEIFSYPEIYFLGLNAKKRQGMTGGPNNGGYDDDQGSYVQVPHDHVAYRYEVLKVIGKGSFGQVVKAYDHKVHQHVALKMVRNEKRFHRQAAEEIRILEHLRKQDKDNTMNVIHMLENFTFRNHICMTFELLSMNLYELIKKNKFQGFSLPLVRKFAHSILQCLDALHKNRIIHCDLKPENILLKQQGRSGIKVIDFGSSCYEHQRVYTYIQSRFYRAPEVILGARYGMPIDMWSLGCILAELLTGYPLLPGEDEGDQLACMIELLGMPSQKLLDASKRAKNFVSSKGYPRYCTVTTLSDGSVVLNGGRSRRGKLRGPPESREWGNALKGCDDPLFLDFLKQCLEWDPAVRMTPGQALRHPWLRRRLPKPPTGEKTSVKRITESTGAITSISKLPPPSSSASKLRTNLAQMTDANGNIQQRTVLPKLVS

[7] = molecular target: High affinity nerve growth factor receptor (Homo sapiens, UniProt P04629); assay: Selectivity interaction (SelectScreen profiling (Invitrogen)) EUB0000607a NTRK1; conditions: at 2 µM
High affinity nerve growth factor receptor, sequence (P04629 33-796 limits assumed): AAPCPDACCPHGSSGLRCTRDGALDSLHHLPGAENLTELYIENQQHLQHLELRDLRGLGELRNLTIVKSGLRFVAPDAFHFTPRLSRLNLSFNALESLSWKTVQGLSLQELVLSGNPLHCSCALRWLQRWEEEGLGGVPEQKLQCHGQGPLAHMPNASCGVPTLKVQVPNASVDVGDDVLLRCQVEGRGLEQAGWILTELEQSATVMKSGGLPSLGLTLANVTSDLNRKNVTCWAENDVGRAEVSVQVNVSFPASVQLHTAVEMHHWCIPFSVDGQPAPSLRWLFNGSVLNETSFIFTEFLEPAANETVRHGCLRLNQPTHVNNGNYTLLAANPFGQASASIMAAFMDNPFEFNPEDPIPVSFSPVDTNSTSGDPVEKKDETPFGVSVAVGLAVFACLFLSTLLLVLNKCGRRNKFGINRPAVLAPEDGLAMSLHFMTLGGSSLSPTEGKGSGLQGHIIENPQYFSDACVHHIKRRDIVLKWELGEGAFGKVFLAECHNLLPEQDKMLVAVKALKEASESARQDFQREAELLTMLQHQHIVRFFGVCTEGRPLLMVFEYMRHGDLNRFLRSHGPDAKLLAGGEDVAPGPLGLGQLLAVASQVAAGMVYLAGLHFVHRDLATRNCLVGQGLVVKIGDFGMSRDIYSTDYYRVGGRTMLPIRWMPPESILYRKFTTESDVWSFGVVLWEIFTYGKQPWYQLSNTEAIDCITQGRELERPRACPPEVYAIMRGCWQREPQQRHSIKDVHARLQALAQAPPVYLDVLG

[8] = molecular target: Serine/threonine-protein kinase PLK3 (Homo sapiens, UniProt Q9H4B4); assay: Selectivity interaction (SelectScreen profiling (Invitrogen)) EUB0000607a PLK3; conditions: at 2 µM
Serine/threonine-protein kinase PLK3, sequence (Q9H4B4 whole entry, looked up): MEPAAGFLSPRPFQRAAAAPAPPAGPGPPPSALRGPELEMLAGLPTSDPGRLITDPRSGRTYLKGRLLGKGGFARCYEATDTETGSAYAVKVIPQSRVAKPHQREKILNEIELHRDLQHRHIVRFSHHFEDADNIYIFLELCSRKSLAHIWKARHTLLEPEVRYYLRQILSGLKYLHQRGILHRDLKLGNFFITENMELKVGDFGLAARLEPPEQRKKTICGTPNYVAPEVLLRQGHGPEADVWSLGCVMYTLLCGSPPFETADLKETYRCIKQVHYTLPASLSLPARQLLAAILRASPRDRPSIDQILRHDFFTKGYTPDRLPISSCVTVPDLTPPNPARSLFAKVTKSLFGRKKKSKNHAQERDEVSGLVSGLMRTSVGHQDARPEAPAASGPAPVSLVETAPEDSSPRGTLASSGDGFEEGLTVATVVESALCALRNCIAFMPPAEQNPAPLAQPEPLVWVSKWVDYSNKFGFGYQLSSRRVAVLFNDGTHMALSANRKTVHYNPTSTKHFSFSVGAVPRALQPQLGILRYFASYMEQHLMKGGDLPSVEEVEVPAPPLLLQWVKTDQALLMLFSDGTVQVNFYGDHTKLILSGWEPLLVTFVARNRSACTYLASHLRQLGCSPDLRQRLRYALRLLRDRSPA

[9] = molecular target: T3, Dual serine/threonine and tyrosine protein kinase (Homo sapiens) (UniProt Q6XUX3); assay: Selectivity interaction (KinomeScan (DiscoverX)) EUB0000607a DSTYK; conditions: at 10 µM
T3 sequence (whole entry): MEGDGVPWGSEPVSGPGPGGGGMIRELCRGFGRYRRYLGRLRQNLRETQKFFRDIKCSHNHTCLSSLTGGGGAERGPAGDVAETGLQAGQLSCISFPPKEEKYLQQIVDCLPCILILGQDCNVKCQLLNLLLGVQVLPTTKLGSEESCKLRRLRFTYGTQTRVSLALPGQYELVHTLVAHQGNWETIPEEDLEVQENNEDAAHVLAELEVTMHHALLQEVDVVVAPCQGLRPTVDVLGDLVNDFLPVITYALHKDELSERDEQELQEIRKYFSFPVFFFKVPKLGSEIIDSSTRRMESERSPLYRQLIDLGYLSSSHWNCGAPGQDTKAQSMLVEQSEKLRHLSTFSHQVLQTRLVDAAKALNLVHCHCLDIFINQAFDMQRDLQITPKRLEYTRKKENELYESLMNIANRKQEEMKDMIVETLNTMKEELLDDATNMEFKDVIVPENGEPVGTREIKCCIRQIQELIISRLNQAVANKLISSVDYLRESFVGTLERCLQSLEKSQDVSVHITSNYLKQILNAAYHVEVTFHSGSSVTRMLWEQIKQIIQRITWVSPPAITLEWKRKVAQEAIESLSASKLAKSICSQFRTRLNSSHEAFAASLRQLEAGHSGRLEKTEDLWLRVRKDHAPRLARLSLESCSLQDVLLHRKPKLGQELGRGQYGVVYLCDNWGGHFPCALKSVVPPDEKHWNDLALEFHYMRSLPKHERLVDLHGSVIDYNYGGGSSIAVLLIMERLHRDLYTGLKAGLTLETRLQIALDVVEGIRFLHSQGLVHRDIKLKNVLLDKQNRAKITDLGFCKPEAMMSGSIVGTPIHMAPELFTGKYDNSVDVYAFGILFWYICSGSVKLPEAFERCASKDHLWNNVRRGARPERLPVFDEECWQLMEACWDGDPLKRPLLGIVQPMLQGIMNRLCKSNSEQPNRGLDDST

Casein kinase I isoform epsilon, sequence (P49674 whole entry, looked up, canonical isoform): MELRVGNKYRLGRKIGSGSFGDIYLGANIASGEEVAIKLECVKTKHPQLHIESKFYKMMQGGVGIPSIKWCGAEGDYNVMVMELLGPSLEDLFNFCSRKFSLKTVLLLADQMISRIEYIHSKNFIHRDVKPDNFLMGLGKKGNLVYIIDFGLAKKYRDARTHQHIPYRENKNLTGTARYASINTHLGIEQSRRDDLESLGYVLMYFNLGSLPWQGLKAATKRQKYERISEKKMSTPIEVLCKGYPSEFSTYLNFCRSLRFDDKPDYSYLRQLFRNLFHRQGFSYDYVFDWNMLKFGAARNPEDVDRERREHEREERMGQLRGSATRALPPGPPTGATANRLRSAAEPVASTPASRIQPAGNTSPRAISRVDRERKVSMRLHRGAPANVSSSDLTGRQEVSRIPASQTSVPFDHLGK

Compound: CC[C@@H]1[C@H](F)C(=O)N[C@@H]1COc1nccc2cc(C(N)=O)c(OC)cc12 [ZIMLOVISERTIB]
- % of inhibition ([1]; at 0.01 µM): -6.6%
- % of inhibition ([1]; at 0.04 µM): 20.3%
- % of inhibition ([1]; at 0.2 µM): 53%
- % of inhibition ([1]; at 1 µM): 77.8%
- % of inhibition ([1]; at 5 µM): 94.8%

Compound: CCN(CC)CCCCNc1ncc2cc(-c3cc(OC)cc(OC)c3)c(NC(=O)NC(C)(C)C)nc2n1
- % of control [2]: 36%

Compound: N#Cc1cccc(-c2c[nH]c3ncnc(N4CCOCC4)c23)c1
- % of control [5]: 100%

Compound: CNC(=O)Nc1ccc(-c2nc(N3CC4CCC(C3)O4)c3cnn(C4CCC5(CC4)OCCO5)c3n2)cc1
- % of inhibition [7]: 7%
- % of inhibition [8]: -11%
- % of control [9]: 100%

Second part, the compound after the results:

- % of control ([3]; at 1 µM): 100%
- % of control ([3]; at 5 µM): 86%
Compound: C=CC(=O)Nc1cccc(C(=O)Nc2ccc(Nc3cc(-c4[nH]c(SC)nc4C)ccn3)cc2)c1

- % of inhibition [4]: -4%
Compound: Cc1ccc(-c2ccc3c(ccc4sc5c(c43)NC[C@@H](C)NC5=O)n2)cn1

- dTM [6]: -0.4 K
Compound: CN(C(=O)c1cnn2cccnc12)c1cc2c(cc1N1CCOCC1)C(=O)N(C[C@@H](F)C(C)(C)O)C2
